Measurements taken from patent US20250009737A1, “COMPOUNDS AND METHODS FOR THE TARGETED DEGRADATION OF ANDROGEN RECEPTOR” (Arvinas Operations, Inc., priority 2023, published 2025).

How the values were obtained:
CYP1A2 mRNA = CYP1A2 mRNA induction in cryopreserved human hepatocytes; format: in vitro ADME; settings: positive control inducer; human hepatocytes
Method: (§1) The induction potential of Compound A on CYP enzymes was assessed in cryopreserved human hepatocytes from three donors. Following treatment for with Compound A at concentrations of 0.03-30 μM for 48 hours, mRNA levels for CYP1A2, 2B6, 2C8, 2C9, 2C19, and 3A4 were determined by semiquantitative real-time polymerase chain reaction (PCR). Test article concentrations during 24-hour incubation were determined. The potential of Compound A to cause direct and time-dependent inhibition (TDI) of the activities of CYP1A2, 2B6, 2C8, 2C9, 2C19, 2D6, and 3A4 was evaluated in pooled human liver microsomes (HLM) at 0.2-15 μM. Probe substrate concentrations around Km were used for direction inhibition and initial TDI assays. For TDI assay, Compound A was pre-incubated with pooled HLM with and without NADPH for 30 minutes prior to incubation with a single concentration of probe substrate.

CYP2B6 mRNA = CYP2B6 mRNA induction in cryopreserved human hepatocytes; format: in vitro ADME; settings: positive control inducer; human hepatocytes
Method: as §1

Q: Which “CYP1A2 mRNA Fold induction, PC” value (CYP1A2 mRNA) does the source give for `COc1ccc2[nH]c([S+]([O-])Cc3ncc(C)c(OC)c3C)nc2c1` (centres unmarked) [Omeprazole, reference compound] here?
A: 77-88 Fold

Q: With `CCC1(c2ccccc2)C(=O)NC(=O)NC1=O` [Phenobarbital, reference compound] as the compound, how does the “CYP2B6 mRNA Fold induction, PC” value (CYP2B6 mRNA) read?
A: 14-25 Fold
